Results published in PubChem BioAssay (NCI).
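Cells were grown in 96-well plates and exposed to each compound for 48 hours at five concentrations; endpoints were interpolated linearly between bracketing concentrations, or set to the highest concentration if not reached. The concentration for full growth arrest is given as TGI.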 Where a SMILES comes first, the peptide text is derived from it. The star is where a group is joined. Boc = CC(C)(C)OC(=O)*

Assays:
Experiment in all cases: DTP human tumour cell line panel, 48 h
RXF 393 renal = tested on: RXF 393 renal
HT29 colon = tested on: HT29 colon
SK-MEL-5 melanoma = tested on: SK-MEL-5 melanoma
RPMI-8226 leukemia = tested on: RPMI-8226 leukemia
IGROV1 ovarian = tested on: IGROV1 ovarian
UACC-257 melanoma = tested on: UACC-257 melanoma
OVCAR-3 ovarian = tested on: OVCAR-3 ovarian
EKVX NSCLC = tested on: EKVX NSCLC
UACC-62 melanoma = tested on: UACC-62 melanoma
ACHN renal = tested on: ACHN renal
NCI-H23 lung = tested on: NCI-H23 lung
OVCAR-8 ovarian = tested on: OVCAR-8 ovarian
HCC-2998 colon = tested on: HCC-2998 colon
U251 CNS = tested on: U251 CNS
LOX IMVI melanoma = tested on: LOX IMVI melanoma
M14 melanoma = tested on: M14 melanoma
PC-3 prostate = tested on: PC-3 prostate
K-562 leukemia = tested on: K-562 leukemia
MDA-MB-435 = tested on: MDA-MB-435
SNB-75 CNS = tested on: SNB-75 CNS

SMILES	TGI (RXF 393 renal) [µM]	TGI (HT29 colon) [µM]	TGI (SK-MEL-5 melanoma) [µM]	TGI (RPMI-8226 leukemia) [µM]	TGI (IGROV1 ovarian) [µM]	TGI (UACC-257 melanoma) [µM]	TGI (OVCAR-3 ovarian) [µM]	TGI (EKVX NSCLC) [µM]	TGI (UACC-62 melanoma) [µM]	TGI (ACHN renal) [µM]	TGI (NCI-H23 lung) [µM]	TGI (OVCAR-8 ovarian) [µM]	TGI (HCC-2998 colon) [µM]	TGI (U251 CNS) [µM]	TGI (LOX IMVI melanoma) [µM]	TGI (M14 melanoma) [µM]	TGI (PC-3 prostate) [µM]	TGI (K-562 leukemia) [µM]	TGI (MDA-MB-435) [µM]	TGI (SNB-75 CNS) [µM]
O=C(CCc1cccc(O)c1)NCCc1cccc(OCc2ccccc2)c1	46.4	30.7	29.7	> 60.1	25.2	34.2	26	62.2	28.4	> 78.3	45.2	67.9	31.7	32	29.8	30.2	31.8	71.3	29.6	–
O=[N+]([O-])c1ccc(N2N=C(c3ccc4ccccc4c3O)CC2c2ccc(Cl)cc2Cl)c([N+](=O)[O-])c1 (configuration not stated)	> 100	> 100	> 100	41.4	> 100	> 100	> 100	> 100	> 100	> 100	> 100	> 100	> 100	> 100	> 100	–	> 100	35.5	> 100	> 100
Nc1cnc2c(c1)c(=O)nc1n2CCS1	> 100	> 100	> 100	> 100	–	> 100	> 100	> 100	> 100	> 100	> 100	> 100	> 100	> 100	> 100	–	> 100	> 100	> 100	> 100
CC(OCc1ccccc1)C(NC(=O)C1CSSCC(NC(=O)C(Cc2ccccc2)NC(=O)OCc2ccccc2)C(=O)NC(Cc2ccccc2)C(=O)NC(Cc2cn(C=O)c3ccccc23)C(=O)NC(CCCCNC(=O)OCc2ccccc2)C(=O)NC(C(C)OCc2ccccc2)C(=O)N1)C(N)=O (configuration not stated)	> 100	> 100	> 73.8	53.3	> 100	> 93	34	> 100	> 100	> 100	> 100	> 100	> 32.5	> 70.7	47	> 79.1	> 52.4	> 100	> 100	> 71.3
O=C1CSC(/C=C/c2ccccc2)N1c1ccc(-n2c(-c3ccccc3)nc3ccccc3c2=O)cc1 (configuration not stated)	–	> 100	> 100	> 100	> 100	> 100	> 100	> 100	> 100	–	> 100	> 100	> 100	> 100	> 100	> 100	> 100	> 100	> 100	90
O=C(O)c1cc(N(Cc2ccccc2O)Cc2cc(O)ccc2O)ccc1O	> 100	> 100	> 100	> 100	> 100	> 100	> 100	> 100	> 100	> 100	> 100	> 100	> 100	> 100	> 100	> 100	> 100	> 100	> 100	–
O=c1c2ncn(CCCl)c2n(-c2ccccc2)c(=S)n1-c1ccccc1	> 100	> 100	> 100	> 100	> 100	> 100	> 100	> 100	> 100	> 100	> 100	> 100	> 100	> 100	> 100	> 100	> 100	> 100	> 100	–
COC(=O)/C(=C\C(=O)c1ccc(Br)cc1)NN=C(c1ccccc1)c1ccccc1	> 10	> 10	> 10	> 10	> 10	> 10	–	> 10	> 10	–	> 10	> 10	> 10	–	> 10	> 10	> 10	> 10	> 10	> 10
CCCCCCCCCC(=O)CC(=O)c1c(O)cc(O)cc1O	31.1	38.8	28.6	37.1	> 75	63.4	53.2	> 75	–	> 75	35.9	36.9	31.4	> 75	35.4	39	41.8	36.3	39.1	69.6
CC(C)(C)c1cc(C(C)(C)C)c2sc(=S)oc2c1O	14.5	30.1	21.8	33.7	24.6	27.4	17.5	11.6	23.4	20.8	18.9	20.9	–	18.7	17.7	32.4	13.8	32.9	26.8	18.5
CC1OC(OC2C(O[C@@H]3C[C@@H]4CC[C@@H]5[C@H](CC[C@]6(C)[C@@H]7[C@H](C[C@@H]56)O[C@]5(CC[C@@H](C)CO5)[C@H]7C)[C@@]4(C)C[C@H]3O)OC(CO)C(OC3OC(CO)C(O)C(O)C3O)C2O)C(O)C(O)C1O (some centres not stated)	3.53	2.88	2.89	11.3	2.39	3.3	3.04	2.91	3.62	3.18	4.12	2.9	–	3.2	–	3.07	2.85	58.1	3.16	5.76
NCCc1ccc2c(c1)C(=O)c1c(O)ccc(O)c1C2=O	> 100	–	3.94	> 100	> 100	> 100	5.66	6.73	39.7	> 53.6	> 60.8	9.19	> 100	> 30.9	> 100	> 100	26.1	> 64.2	> 100	42.3
CCOC(=O)CC(N1CC1)N1CC1	> 10	> 10	> 10	> 10	> 10	> 10	> 10	> 10	> 10	> 10	> 10	–	> 10	> 10	> 10	> 10	> 10	> 10	> 10	> 10
Cc1cc(C)c2c(c1)C(=O)C1(C2)Cc2c(ccc(C)c2C)C1=O (configuration not stated)	> 100	–	> 100	> 100	> 100	> 100	> 100	> 100	> 100	> 100	–	> 100	> 100	> 100	> 100	> 100	> 100	> 100	> 100	> 100
COc1ccc2[nH]c3c(C)c4cnccc4c(C)c3c2c1	6.02	3.41	> 10	7.11	> 10	> 10	2.43	> 10	> 10	> 10	> 10	2.2	3.35	3.24	–	2.54	> 10	> 10	2.84	> 10
O=C(NNC(=O)c1ccccc1Cl)c1ccccc1O	> 100	> 100	> 100	> 100	> 100	> 100	> 100	> 100	> 100	–	–	> 100	–	> 100	> 100	> 100	> 100	> 100	> 100	> 100
CCOC(=O)c1c(N2CCOCC2)[nH]c(=O)c(C(c2ccc(Cl)c([N+](=O)[O-])c2)c2c(O)c(C(=O)OCC)c(N3CCOCC3)[nH]c2=O)c1O	> 100	42.1	74.5	> 100	–	> 100	35.5	> 100	> 100	> 100	98.8	37	> 100	41.9	48.1	58.5	50.1	> 100	> 100	> 100
CN(CC#N)C(=O)Cc1ccc([N+](=O)[O-])cc1	> 10	> 10	> 10	> 10	> 10	> 10	> 10	> 10	> 10	> 10	> 10	> 10	> 10	> 10	> 10	> 10	> 10	> 10	> 10	–
Cc1ccccc1NC(=O)C(=O)Cc1cnc2ccccc2n1	–	> 100	> 100	> 100	> 100	> 100	> 100	> 100	> 100	> 100	> 100	> 100	> 100	> 100	> 100	> 100	> 100	> 100	> 100	–
Cc1cc(=O)[nH]c2c3c(ccc12)OC(C)(C)C=C3	> 31.4	> 56.4	> 100	> 100	> 100	> 100	> 27.7	> 63.7	> 100	> 100	> 100	> 100	> 96.1	> 47.4	–	> 100	> 100	> 100	4.9	87.9
CCOC(=O)C(CC(C)C)NC(=O)C(Cc1ccccc1)NC(=O)CNC(=O)OC(C)(C)C (stereo not drawn) (Boc-Gly-Phe-Leu-OEt; configuration not given here)	49	32.4	36.8	45.8	49	36.3	34.4	54.1	35.9	30.8	–	46	37.2	31.9	34.3	40.2	35.7	49	34.4	38.6
COc1ccc(C(=O)c2ccc(-n3c4ccccc4c4ccc5c(c43)C(=O)C=CC5=O)cc2)cc1	16	3.65	12.9	> 100	10.4	7.05	2.68	4.32	8.02	1.8	5.18	–	11.5	3.54	4.31	7.45	3.3	> 100	3.14	> 30.9
Cc1cc(=O)oc2c(CNC(C(=O)O)C(C)O)c(O)ccc12 (configuration not stated)	> 100	> 100	> 100	> 100	> 100	> 100	> 100	> 100	> 100	> 100	> 100	> 100	–	> 100	> 100	> 100	> 100	> 100	> 100	> 100
COc1cccc(-c2cc(=O)c3cccnc3[nH]2)c1	> 100	0.561	13.1	> 100	> 100	> 100	> 100	> 100	> 100	> 100	–	> 100	–	> 100	> 100	> 100	> 100	> 100	0.0855	> 100
